ChEMBL document CHEMBL1201862, “PubChem BioAssay data set” (2004)
Calls of active or inactive are those of the source.

What was measured:
[1] = cytotoxicity in MIN6 insulinoma cells, dose response, cytotoxicity control, cell-based, mouse insulinoma (AID 2122); type: functional;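 also: confirmatory high-throughput counterscreen run to flag cytotoxic compounds; mouse MIN-6 beta cells carrying an insulin promoter eGFP reporter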
[2] = insulin promoter down-regulators in MIN6 cells, imaging, high-content screening, mouse beta cells (AID 1628); type: functional
Escherichia coli [3] = assay: microbe, parasite or virus in culture
Escherichia coli [4] = assay: microbe, parasite or virus in culture; remark: listed apart in the source
[5] = molecular target: 72 kDa type IV collagenase (Homo sapiens, UniProt P08253); assay: Dose Response validation of uHTS RPN11 inhibitor hits using a MMP-2 Fluorescence assay.; type: functional
[6] = molecular target: 26S proteasome non-ATPase regulatory subunit 14 (Homo sapiens, UniProt O00487); assay: inhibition of proteasome subunit RPN11 – biochemical, fluorescence polarization, uHTS hits, confirmation (AID 602368); type: functional
Prothrombin = Prothrombin (Bos taurus, UniProt P00735); assay: thrombin inhibition, dose response, biochemical, fluorescence polarization, uHTS hits (AID 602369); type: functional
[7] = molecular target: Intestinal-type alkaline phosphatase (Homo sapiens, UniProt P09923); assay: inhibition of human intestinal alkaline phosphatase – biochemical, dose response (AID 488876); type: functional
[8] = molecular target: Intestinal-type alkaline phosphatase (Mus musculus, UniProt P24822); assay: PubChem AID 488785; type: functional
[9] = molecular target: T1, Alkaline phosphatase, tissue-nonspecific isozyme (Homo sapiens, UniProt P05186); assay: TNAP enzyme inhibition by screening hits, dose response, selectivity assay for mouse IAP inhibitor project, biochemical, human TNAP, uHTS hits (AID 488906); type: functional
T1 sequence (P05186 whole entry): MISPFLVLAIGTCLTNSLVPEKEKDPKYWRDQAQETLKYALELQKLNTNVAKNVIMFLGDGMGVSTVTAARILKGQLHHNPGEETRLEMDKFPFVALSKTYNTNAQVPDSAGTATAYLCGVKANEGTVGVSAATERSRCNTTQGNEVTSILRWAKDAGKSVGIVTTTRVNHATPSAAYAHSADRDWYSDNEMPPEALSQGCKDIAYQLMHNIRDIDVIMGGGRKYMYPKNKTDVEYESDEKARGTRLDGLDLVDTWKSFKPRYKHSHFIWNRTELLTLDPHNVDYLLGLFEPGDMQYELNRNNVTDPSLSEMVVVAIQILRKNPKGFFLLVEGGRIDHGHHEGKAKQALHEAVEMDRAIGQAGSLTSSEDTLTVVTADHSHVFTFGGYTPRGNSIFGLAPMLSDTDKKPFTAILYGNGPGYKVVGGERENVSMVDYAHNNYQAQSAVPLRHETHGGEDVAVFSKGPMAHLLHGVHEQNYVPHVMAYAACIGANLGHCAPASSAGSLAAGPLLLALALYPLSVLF

[10] = molecular target: Peroxisome proliferator-activated receptor gamma/Nuclear receptor coactivator 1 (Homo sapiens, UniProt P37231); assay: TR-FRET dose response biochemical High Throughput Screening assay for agonists of the steroid receptor coactivator 1 (SRC-1) recruitment by the peroxisome proliferator-activated receptor gamma (PPAR gamma): non-selective agonists. [Related pubchem assays (depositor defined):AID1300, AID1808, AID504735, AID631]; type: protein assay
[11] = molecular target: Peroxisome proliferator-activated receptor gamma/Nuclear receptor coactivator 2 (Homo sapiens, UniProt P37231); assay: (§1) TR-FRET dose response biochemical High Throughput Screening assay for agonists of the steroid receptor coactivator 2 (SRC-2) recruitment by the peroxisome proliferator-activated receptor gamma (PPAR gamma): non-selective agonists. [Related pubchem assays: 1297, 1032 ]; type: functional
[12] = molecular target: T2, RNA-binding protein pos-1 (Caenorhabditis elegans, UniProt G5EF15); assay: inhibitors of POS-1/mex-3 RNA binding, dose response, biochemical, fluorescence polarization (AID 1964);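 also: purified POS-1 fused to maltose binding protein made in E. coli; potency of compounds blocking POS-1 binding to fluorescent RNA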
T2 sequence (G5EF15 whole entry): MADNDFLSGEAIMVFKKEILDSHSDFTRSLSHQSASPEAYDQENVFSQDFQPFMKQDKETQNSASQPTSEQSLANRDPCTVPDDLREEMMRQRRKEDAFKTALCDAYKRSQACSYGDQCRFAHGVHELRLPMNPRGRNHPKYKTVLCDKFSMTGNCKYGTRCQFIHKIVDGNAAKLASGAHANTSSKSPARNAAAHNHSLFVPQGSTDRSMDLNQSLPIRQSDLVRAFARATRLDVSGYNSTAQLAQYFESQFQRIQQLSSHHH

[13] = molecular target: T3, Zinc finger protein mex-5 (Caenorhabditis elegans, UniProt Q9XUB2); assay: MEX-5/TCR-2 RNA interaction inhibitors, dose response, biochemical, C. elegans, fluorescence polarization (AID 1960)
T3 sequence (Q9XUB2 whole entry): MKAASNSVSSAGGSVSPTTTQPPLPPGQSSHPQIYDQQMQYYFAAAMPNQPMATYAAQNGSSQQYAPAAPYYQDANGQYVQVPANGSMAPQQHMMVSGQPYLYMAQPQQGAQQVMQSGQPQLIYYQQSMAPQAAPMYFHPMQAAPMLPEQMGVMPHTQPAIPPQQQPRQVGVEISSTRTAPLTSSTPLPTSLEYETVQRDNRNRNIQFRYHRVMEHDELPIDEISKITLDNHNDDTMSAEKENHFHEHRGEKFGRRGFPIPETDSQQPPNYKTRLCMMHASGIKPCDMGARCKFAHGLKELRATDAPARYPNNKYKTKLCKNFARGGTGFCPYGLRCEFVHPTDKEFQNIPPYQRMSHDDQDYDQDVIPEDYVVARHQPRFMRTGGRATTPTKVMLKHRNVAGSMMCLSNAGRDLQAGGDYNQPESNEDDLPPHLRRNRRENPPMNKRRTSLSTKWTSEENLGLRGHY

[14] = molecular target: Peroxisome proliferator-activated receptor gamma/Nuclear receptor coactivator 3 (Homo sapiens, UniProt P37231); assay: as §1, with “3 (SRC-3)” for “2 (SRC-2)”, “1301 (Confirmation screen.), 1048 (Primary screen.)]” for “1297, 1032 ]”; type: functional

72 kDa type IV collagenase, sequence (P08253 whole entry): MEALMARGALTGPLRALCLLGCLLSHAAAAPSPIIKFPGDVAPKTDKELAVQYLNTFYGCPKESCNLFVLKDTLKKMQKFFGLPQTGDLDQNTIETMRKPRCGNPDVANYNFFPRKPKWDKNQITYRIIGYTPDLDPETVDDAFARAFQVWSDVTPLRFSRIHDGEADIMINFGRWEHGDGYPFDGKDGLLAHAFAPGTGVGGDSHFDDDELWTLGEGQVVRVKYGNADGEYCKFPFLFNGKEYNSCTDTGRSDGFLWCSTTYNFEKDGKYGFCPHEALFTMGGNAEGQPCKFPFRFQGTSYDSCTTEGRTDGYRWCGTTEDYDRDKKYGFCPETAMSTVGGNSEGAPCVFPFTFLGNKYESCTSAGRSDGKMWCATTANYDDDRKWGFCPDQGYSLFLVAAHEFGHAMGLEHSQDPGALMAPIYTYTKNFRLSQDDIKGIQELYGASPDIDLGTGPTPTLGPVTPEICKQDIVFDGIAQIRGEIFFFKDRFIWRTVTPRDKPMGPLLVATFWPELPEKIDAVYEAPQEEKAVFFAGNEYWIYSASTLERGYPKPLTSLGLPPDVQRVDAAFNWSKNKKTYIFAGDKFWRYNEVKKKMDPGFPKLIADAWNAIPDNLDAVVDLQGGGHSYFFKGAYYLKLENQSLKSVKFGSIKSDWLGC
26S proteasome non-ATPase regulatory subunit 14, sequence (O00487 whole entry): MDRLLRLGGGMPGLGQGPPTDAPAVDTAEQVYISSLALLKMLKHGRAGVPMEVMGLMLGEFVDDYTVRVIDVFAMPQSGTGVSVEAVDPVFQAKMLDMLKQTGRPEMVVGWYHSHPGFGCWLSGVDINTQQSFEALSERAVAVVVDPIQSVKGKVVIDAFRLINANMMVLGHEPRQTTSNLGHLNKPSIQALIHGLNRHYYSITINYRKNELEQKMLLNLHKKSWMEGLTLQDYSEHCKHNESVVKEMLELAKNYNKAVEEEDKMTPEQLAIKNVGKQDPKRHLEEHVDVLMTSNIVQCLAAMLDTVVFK
Intestinal-type alkaline phosphatase (Mus musculus, UniProt P24822), sequence (P24822 whole entry): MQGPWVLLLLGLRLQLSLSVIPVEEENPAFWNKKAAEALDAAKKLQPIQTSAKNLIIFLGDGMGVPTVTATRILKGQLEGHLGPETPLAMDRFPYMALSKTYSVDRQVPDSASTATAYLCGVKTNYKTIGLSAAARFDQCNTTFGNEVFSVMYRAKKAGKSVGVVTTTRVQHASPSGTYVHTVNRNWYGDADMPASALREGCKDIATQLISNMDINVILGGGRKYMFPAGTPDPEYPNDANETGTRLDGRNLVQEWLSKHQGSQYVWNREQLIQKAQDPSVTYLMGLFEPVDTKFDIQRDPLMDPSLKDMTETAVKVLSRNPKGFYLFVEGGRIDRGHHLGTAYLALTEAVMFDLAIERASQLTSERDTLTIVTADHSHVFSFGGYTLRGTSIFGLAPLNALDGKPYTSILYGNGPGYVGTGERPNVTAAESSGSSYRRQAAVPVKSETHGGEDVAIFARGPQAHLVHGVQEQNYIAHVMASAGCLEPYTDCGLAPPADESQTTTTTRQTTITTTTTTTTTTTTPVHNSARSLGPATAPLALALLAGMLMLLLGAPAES
Intestinal-type alkaline phosphatase (Homo sapiens, UniProt P09923), sequence (P09923 whole entry): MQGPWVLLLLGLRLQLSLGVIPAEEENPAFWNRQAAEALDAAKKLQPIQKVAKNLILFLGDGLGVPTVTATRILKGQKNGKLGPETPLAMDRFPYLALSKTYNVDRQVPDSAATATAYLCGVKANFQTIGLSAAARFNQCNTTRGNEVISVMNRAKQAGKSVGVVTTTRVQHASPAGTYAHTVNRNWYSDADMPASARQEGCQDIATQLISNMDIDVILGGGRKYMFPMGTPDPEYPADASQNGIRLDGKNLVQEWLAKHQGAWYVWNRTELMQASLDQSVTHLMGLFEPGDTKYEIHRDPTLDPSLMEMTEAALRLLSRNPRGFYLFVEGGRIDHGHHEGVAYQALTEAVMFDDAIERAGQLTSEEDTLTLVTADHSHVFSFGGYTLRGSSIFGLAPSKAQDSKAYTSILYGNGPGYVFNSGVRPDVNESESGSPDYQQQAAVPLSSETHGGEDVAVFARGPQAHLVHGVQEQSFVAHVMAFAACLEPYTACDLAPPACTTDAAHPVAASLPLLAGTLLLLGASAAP
Peroxisome proliferator-activated receptor gamma/Nuclear receptor coactivator 1, sequence (P37231 whole entry): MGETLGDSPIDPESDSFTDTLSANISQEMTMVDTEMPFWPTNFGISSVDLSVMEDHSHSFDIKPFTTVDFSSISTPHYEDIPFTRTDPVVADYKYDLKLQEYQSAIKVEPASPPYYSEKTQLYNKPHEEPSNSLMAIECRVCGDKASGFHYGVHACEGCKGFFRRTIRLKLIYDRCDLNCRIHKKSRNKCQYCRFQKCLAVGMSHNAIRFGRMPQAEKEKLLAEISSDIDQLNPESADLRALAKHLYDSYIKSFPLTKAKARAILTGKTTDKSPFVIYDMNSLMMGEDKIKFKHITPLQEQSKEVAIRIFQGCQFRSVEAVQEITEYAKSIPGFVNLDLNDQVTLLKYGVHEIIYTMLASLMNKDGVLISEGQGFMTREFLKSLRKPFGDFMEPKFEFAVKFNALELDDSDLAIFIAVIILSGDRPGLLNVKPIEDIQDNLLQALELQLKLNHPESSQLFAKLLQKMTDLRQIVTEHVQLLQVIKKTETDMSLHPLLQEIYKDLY
Peroxisome proliferator-activated receptor gamma/Nuclear receptor coactivator 1, sequence (Q15788 whole entry, further chain): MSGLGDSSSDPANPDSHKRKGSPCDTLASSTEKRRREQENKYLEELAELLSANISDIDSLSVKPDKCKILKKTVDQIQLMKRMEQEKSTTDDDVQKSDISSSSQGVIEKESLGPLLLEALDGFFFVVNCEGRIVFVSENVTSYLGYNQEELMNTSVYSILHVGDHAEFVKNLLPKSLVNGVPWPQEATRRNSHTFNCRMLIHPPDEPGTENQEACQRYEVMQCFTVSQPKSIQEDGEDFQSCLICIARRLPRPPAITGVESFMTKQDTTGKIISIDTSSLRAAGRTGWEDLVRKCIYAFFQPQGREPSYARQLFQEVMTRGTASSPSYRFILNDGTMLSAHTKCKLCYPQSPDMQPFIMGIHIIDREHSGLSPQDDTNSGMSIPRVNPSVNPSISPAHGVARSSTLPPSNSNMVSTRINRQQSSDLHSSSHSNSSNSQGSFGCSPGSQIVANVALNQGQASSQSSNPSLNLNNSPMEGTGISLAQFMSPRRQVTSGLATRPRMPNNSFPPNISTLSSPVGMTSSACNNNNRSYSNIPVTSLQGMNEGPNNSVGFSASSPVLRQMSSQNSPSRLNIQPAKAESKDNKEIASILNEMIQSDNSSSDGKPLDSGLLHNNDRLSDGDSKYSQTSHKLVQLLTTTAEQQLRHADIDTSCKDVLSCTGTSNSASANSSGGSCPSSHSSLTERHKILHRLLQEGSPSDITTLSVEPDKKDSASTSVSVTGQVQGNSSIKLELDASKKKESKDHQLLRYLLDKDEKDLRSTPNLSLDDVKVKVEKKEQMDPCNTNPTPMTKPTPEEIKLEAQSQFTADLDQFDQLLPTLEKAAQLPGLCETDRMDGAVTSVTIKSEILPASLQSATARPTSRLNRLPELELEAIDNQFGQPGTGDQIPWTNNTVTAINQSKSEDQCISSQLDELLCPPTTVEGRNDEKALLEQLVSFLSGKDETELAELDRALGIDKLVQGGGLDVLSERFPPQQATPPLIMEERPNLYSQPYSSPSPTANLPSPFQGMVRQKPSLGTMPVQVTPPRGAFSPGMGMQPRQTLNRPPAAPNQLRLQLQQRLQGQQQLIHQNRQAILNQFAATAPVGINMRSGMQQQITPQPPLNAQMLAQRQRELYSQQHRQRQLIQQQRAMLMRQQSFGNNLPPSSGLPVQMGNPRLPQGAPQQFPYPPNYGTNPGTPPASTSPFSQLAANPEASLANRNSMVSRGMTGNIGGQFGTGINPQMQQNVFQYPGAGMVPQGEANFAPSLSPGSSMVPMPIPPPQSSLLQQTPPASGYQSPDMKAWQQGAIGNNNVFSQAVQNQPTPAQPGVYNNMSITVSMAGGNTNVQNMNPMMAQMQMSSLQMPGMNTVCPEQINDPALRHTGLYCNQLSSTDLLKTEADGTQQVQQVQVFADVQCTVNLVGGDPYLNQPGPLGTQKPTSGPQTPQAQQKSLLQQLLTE

## NS(=O)(=O)c1ccc(CCNc2ncnc3sccc23)cc1
[1]
  IC50: 1.06 µM (active)
[2]
  IC50: 2.01 µM (active)

## c1ccc(Nc2cc(-c3ccccc3)nc3ncnn23)cc1
Escherichia coli [3]
  AC50: 72 µM (active)
Escherichia coli [4]
  AC50: 18.4 µM (active)

## CN1C(=O)/C(=C\C=C2/CCCN2C)N(C)C1=S
[5]
  IC50: > 100 µM (inactive)
[6]
  IC50: 23.3 µM (active)
Prothrombin
  IC50: 42.7 µM (active)

## COc1cc(C(=O)NN2C(=O)/C(=C3\C(=O)Nc4ccccc43)SC2=S)ccc1O
[7]
  IC50: > 100 µM (inactive)
[8]
  IC50: 6.07 µM (active)
[9]
  IC50: 22.2 µM (active)

## COc1cccc(C2C(C(=O)c3cc4cccc(OC)c4o3)=C(O)C(=O)N2c2cc(C)on2)c1OC (stereo not given)
[10]
  EC50: > 79.4 µM (inactive)
[11]
  EC50: 19.6 µM (not active)
[12]
  EC50: > 300 µM (not active)
[13]
  EC50: > 300 µM (not active)
[14]
  EC50: > 79.4 µM (not active)

## Cc1cc2nc(CS)[nH]c2cc1C
[5]
  IC50: 9.51 µM (active)
[6]
  IC50: 51.1 µM (active)
Prothrombin
  IC50: > 100 µM (inactive)

## O=C(CS(=O)(=O)c1ccc(Cl)c(Cl)c1)Nc1ccccc1Cl
Escherichia coli [3]
  AC50: 300 µM (active)
Escherichia coli [4]
  AC50: 47.2 µM (active)
